This note sets out measurements from patent US8937065B2, “Compositions and methods for modulating a kinase” (Clevexel Pharma, priority 2011, dated 2015).

The structures appear in SMILES notation.

Assay [1] relates to NF-kB pathway, THP-1 cells. Briefly: NFkB-NFkB-bla THP-1 screen. Conditions: Homo sapiens, read-out: IC50 Cell-based selectivity: NF-kB pathway THP-1 cells. As for the experimental part:
Mechanism-based inhibition assays using compound 7A (Table 1) were performed using GeneBLAzer® Technology (Invitrogen Corporation), according to manufacturer specifications. Briefly, GeneBLAzer® Technology uses a mammalian-optimized Beta-lactamase reporter gene (bla) combined with a FRET-enabled substrate to provide reliable and sensitive detection in intact cells. Cells were loaded with an engineered fluorescent substrate containing two fluorophores, coumarin and fluorescein. Without bla expression, the substrate molecule remains intact. In this state, excitation of the coumarin results in fluorescence resonance energy transfer to the fluorescein moiety and emission of green light. But when bla is expressed, the substrate is cleaved, the fluorophores are separated, and energy transfer is disrupted. Excitation of the coumarin in the presence of Beta-lactamase activity results in a blue fluorescence signal. […]
General Activator Assay Protocol • 1. […] The assay, plate was read on a fluorescence plate reader (Tecan Safire^2) and the data is analyzed.
NFkB-bla THP-1 cells were thawed and resuspended in Assay Media (RPMI, 10% dialyzed FBS, 0.1 mM NEAA, 1 mM Sodium Pyruvate, 100 U/mL/100 μg/mL Pen/Strep) to a concentration of 625,000 cells/mL. […] The plate was read on a fluorescence plate reader.

For assay [2], the system named is collagen induced arthritis (CIA) in DBA/1 mice. In words: Mouse collagen induced arthritis (CIA) slow-progressing disease model. Type of assay: in vivo. Conditions: 100 mg/kg IP QD, 20 days, mild CIA model, n=10, P<0.05. As for the experimental part:
Compounds of the invention were evaluated in mouse collagen induced arthritis (CIA) models. There are several known CIA models as outlined in the table below:
The CIA studies utilized a mild (slow-progressing) disease model. The DBA/1 mice developed collagen induced arthritis (CIA) after immunization with Hooke Kit™ chicken collagen/Complete Freund's Adjuvant (CFA) emulsion (EK-0210), followed by a booster dose of Hooke Kit™ chicken collagen/Incomplete Freund's Adjuvant (IFA) emulsion (EK-0211). Each study used 54 female DBA/1 mice (Taconic Farms model DBA1BO, 9 weeks old) later assigned to […] with 10 mice per group. 4 mice were not immunized nor treated, and they were left as naïve controls group for possible histological analysis. The other 50 mice were treated therapeutically.
One study comprises group 1—Vehicle, group 2—CP-690550, 30 mg/kg PO QD, group 3—R-788, 60 mg/kg PO QD and group 4—compound 7, 100 mg/kg, IP QD. The other study comprises group 1—Vehicle, group 2—compound 7, 15 mg/kg PO QD, group 3—compound 7, 30 mg/kg PO QD and group 4—compound 7, 100 mg/kg, IP QD.
Mice were first immunized with collagen/CFA emulsion on Day 0 after being acclimated for at least 7 days. The procedure of immunization was as follows: A mouse was immobilized using a restrainer. The tail was cleaned with 70% ethanol and the area was wiped dry with sterile gauze. […]

Consider `O=C(CN1CCOCC1)Nc1cccc(-c2nc(-c3c[nH]c(C(=O)N4CCCC4)c3)cs2)c1` [7A, 2-morpholino-N-(3-(4-(5-(pyrrolidine-1-carbonyl)-1H-pyrrol-3-yl)thiazol-2-yl)phenyl)acetamide], for which, in assay [1], the IC50 worked out at 40.8 µM. Also, the “CIA score on the last day vs. combined vehicle” value in assay [2] is given as “reduction in CIA score”.
